Measured values reported in PubChem BioAssay AID2060503 (Molecular Pharmacology Branch, DTP, NCI, 2025).

System: 817829-284-R-J1-PDC complex spheroids, viability
Experiment: Anticancer human tumor 817829-284-R-J1-PDC patient-derived colon adenocarcinoma cell line growth inhibition [GQUAD]
Conditions: for IC50: curve of first compound; for viability, T/C: stronger effect = lower value
Procedure, shortened: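 Viability of tumor cells grown as complex spheroids with endothelial and stromal cells, exposed to drug combinations. Top concentration at or near clinical Cmax (else 10 microM), diluted in half-log increments.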

[1] = second compound 0.0316 µM, first compound 0.0316 µM
[2] = second compound 0.0316 µM, first compound 0.316 µM
[3] = second compound 0.1 µM, first compound 0.0316 µM
[4] = second compound 0.1 µM, first compound 0.316 µM
[5] = second compound 0.316 µM, first compound 0.0316 µM
[6] = second compound 0.316 µM, first compound 0.316 µM
[7] = second compound 1 µM, first compound 0.0316 µM
[8] = second compound 1 µM, first compound 0.316 µM
[9] = second compound 3.16 µM, first compound 0.0316 µM
[10] = second compound 3.16 µM, first compound 0.316 µM
[11] = second compound 10 µM, first compound 0.0316 µM
[12] = second compound 10 µM, first compound 0.316 µM
[13] = second compound 0.0316 µM, first compound 0.1 µM
[14] = second compound 0.0316 µM, first compound 1 µM
[15] = second compound 0.0316 µM, first compound 3.16 µM
[16] = second compound 0.0316 µM, first compound 10 µM
[17] = second compound 0.1 µM, first compound 0.1 µM
[18] = second compound 0.1 µM, first compound 1 µM
[19] = second compound 0.1 µM, first compound 3.16 µM
[20] = second compound 0.1 µM, first compound 10 µM
[21] = second compound 0.316 µM, first compound 0.1 µM
[22] = second compound 0.316 µM, first compound 1 µM
[23] = second compound 0.316 µM, first compound 3.16 µM
[24] = second compound 0.316 µM, first compound 10 µM
[25] = second compound 1 µM, first compound 0.1 µM
[26] = second compound 1 µM, first compound 1 µM
[27] = second compound 1 µM, first compound 3.16 µM
[28] = second compound 1 µM, first compound 10 µM
[29] = second compound 3.16 µM, first compound 0.1 µM
[30] = second compound 3.16 µM, first compound 1 µM
[31] = second compound 3.16 µM, first compound 3.16 µM
[32] = second compound 3.16 µM, first compound 10 µM
[33] = second compound 10 µM, first compound 0.1 µM
[34] = second compound 10 µM, first compound 1 µM
[35] = second compound 10 µM, first compound 3.16 µM
[36] = second compound 10 µM, first compound 10 µM
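Also: spheroids exposed to agents for 7 days before readout.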
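For viability, T/C in this document: percent viability relative to DMSO vehicle control taken as 100%.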

## CC[C@@]1(O)C(=O)OCc2c1cc1n(c2=O)Cc2cc3c(CN(C)C)c(O)ccc3nc2-1 + Cc1[nH]c2ccc(F)cc2c1-c1nc2c3cccnc3c3ncccc3c2[nH]1
Second compound 0.0316 µM
  IC50: 47.6 nM
Second compound 0.1 µM
  IC50: 60.3 nM
Second compound 0.316 µM
  IC50: 51.7 nM
Second compound 1 µM
  IC50: 52.2 nM
Second compound 3.16 µM
  IC50: 26.5 nM
Second compound 10 µM
  IC50: < 0.999 nM
Second compound 0.0316 µM, first compound 0.000999 µM
  viability, T/C: 119%
Second compound 0.0316 µM, first compound 0.00316 µM
  viability, T/C: 84.5%
Second compound 0.0316 µM, first compound 0.00999 µM
  viability, T/C: 92.7%
[1]
  viability, T/C: 51.8%
Second compound 0.0316 µM, first compound 0.0999 µM
  viability, T/C: 34.9%
[2]
  viability, T/C: 26.6%
Second compound 0.1 µM, first compound 0.000999 µM
  viability, T/C: 98.8%
Second compound 0.1 µM, first compound 0.00316 µM
  viability, T/C: 104%
Second compound 0.1 µM, first compound 0.00999 µM
  viability, T/C: 88.6%
[3]
  viability, T/C: 70.9%
Second compound 0.1 µM, first compound 0.0999 µM
  viability, T/C: 33.1%
[4]
  viability, T/C: 27.1%
Second compound 0.316 µM, first compound 0.000999 µM
  viability, T/C: 90%
Second compound 0.316 µM, first compound 0.00316 µM
  viability, T/C: 111%
Second compound 0.316 µM, first compound 0.00999 µM
  viability, T/C: 101%
[5]
  viability, T/C: 63.6%
Second compound 0.316 µM, first compound 0.0999 µM
  viability, T/C: 34.2%
[6]
  viability, T/C: 26.1%
Second compound 1 µM, first compound 0.000999 µM
  viability, T/C: 91.8%
Second compound 1 µM, first compound 0.00316 µM
  viability, T/C: 110%
Second compound 1 µM, first compound 0.00999 µM
  viability, T/C: 109%
[7]
  viability, T/C: 64.8%
Second compound 1 µM, first compound 0.0999 µM
  viability, T/C: 32.4%
[8]
  viability, T/C: 29.1%
Second compound 3.16 µM, first compound 0.000999 µM
  viability, T/C: 108%
Second compound 3.16 µM, first compound 0.00316 µM
  viability, T/C: 111%
Second compound 3.16 µM, first compound 0.00999 µM
  viability, T/C: 95.1%
[9]
  viability, T/C: 41.9%
Second compound 3.16 µM, first compound 0.0999 µM
  viability, T/C: 18.2%
[10]
  viability, T/C: 15.7%
Second compound 10 µM, first compound 0.000999 µM
  viability, T/C: 11%
Second compound 10 µM, first compound 0.00316 µM
  viability, T/C: 22.5%
Second compound 10 µM, first compound 0.00999 µM
  viability, T/C: 26.1%
[11]
  viability, T/C: 7.2%
Second compound 10 µM, first compound 0.0999 µM
  viability, T/C: 5.98%
[12]
  viability, T/C: 5.1%

## COc1cccc2c1C(=O)c1c(O)c3c(c(O)c1C2=O)CC(O)(C(=O)CO)CC3OC1CC(N)C(O)C(C)O1 (stereo not drawn) + Cc1cnc(CNC(=O)c2c(=O)c3ccc(N4CCCN(C)CC4)nc3n3c2sc2ccccc23)cn1
Second compound 0.0316 µM
  IC50: < 31.6 nM
Second compound 0.1 µM
  IC50: < 31.6 nM
Second compound 0.316 µM
  IC50: < 31.6 nM
Second compound 1 µM
  IC50: < 31.6 nM
Second compound 3.16 µM
  IC50: < 31.6 nM
Second compound 10 µM
  IC50: < 31.6 nM
[1]
  viability, T/C: 50.1%
[13]
  viability, T/C: 28.6%
[2]
  viability, T/C: 25.7%
[14]
  viability, T/C: 7.54%
[15]
  viability, T/C: 0.23%
[16]
  viability, T/C: 0.16%
[3]
  viability, T/C: 27.2%
[17]
  viability, T/C: 26.8%
[4]
  viability, T/C: 17.2%
[18]
  viability, T/C: 9.6%
[19]
  viability, T/C: 0.27%
[20]
  viability, T/C: 0.19%
[5]
  viability, T/C: 21.8%
[21]
  viability, T/C: 24.4%
[6]
  viability, T/C: 18.2%
[22]
  viability, T/C: 6.76%
[23]
  viability, T/C: 0.15%
[24]
  viability, T/C: 0.22%
[7]
  viability, T/C: 19.9%
[25]
  viability, T/C: 21.5%
[8]
  viability, T/C: 18.9%
[26]
  viability, T/C: 8.23%
[27]
  viability, T/C: 0.07%
[28]
  viability, T/C: 0.08%
[9]
  viability, T/C: 17.8%
[29]
  viability, T/C: 16.4%
[10]
  viability, T/C: 13.9%
[30]
  viability, T/C: 7.35%
[31]
  viability, T/C: 0.11%
[32]
  viability, T/C: 0.11%
[11]
  viability, T/C: 0.07%
[33]
  viability, T/C: 0.12%
[12]
  viability, T/C: 0.16%
[34]
  viability, T/C: 0.12%
[35]
  viability, T/C: 0.19%
[36]
  viability, T/C: 0.18%

## CC1COCCN1c1cc(C2(S(C)(=N)=O)CC2)nc(-c2ccnc3[nH]ccc23)n1 (stereo not drawn) + Cc1cnc(CNC(=O)c2c(=O)c3ccc(N4CCCN(C)CC4)nc3n3c2sc2ccccc23)cn1
Second compound 0.0316 µM
  IC50: 200 nM
Second compound 0.1 µM
  IC50: < 31.6 nM
Second compound 0.316 µM
  IC50: < 31.6 nM
Second compound 1 µM
  IC50: < 31.6 nM
Second compound 3.16 µM
  IC50: < 31.6 nM
Second compound 10 µM
  IC50: < 31.6 nM
[1]
  viability, T/C: 82.8%
[13]
  viability, T/C: 71.1%
[2]
  viability, T/C: 36.1%
[14]
  viability, T/C: 15.2%
[15]
  viability, T/C: 12.5%
[16]
  viability, T/C: 10.4%
[3]
  viability, T/C: 47.3%
[17]
  viability, T/C: 37.9%
[4]
  viability, T/C: 24.1%
[18]
  viability, T/C: 14.4%
[19]
  viability, T/C: 11.4%
[20]
  viability, T/C: 8.15%
[5]
  viability, T/C: 29.1%
[21]
  viability, T/C: 29.6%
[6]
  viability, T/C: 22.2%
[22]
  viability, T/C: 16.5%
[23]
  viability, T/C: 12.6%
[24]
  viability, T/C: 9.19%
[7]
  viability, T/C: 29.2%
[25]
  viability, T/C: 27.2%
[8]
  viability, T/C: 21.3%
[26]
  viability, T/C: 17.1%
[27]
  viability, T/C: 10.8%
[28]
  viability, T/C: 8.91%
[9]
  viability, T/C: 21.5%
[29]
  viability, T/C: 23.8%
[10]
  viability, T/C: 22.3%
[30]
  viability, T/C: 15.2%
[31]
  viability, T/C: 12.8%
[32]
  viability, T/C: 8.2%
[11]
  viability, T/C: 0.17%
[33]
  viability, T/C: 0.16%
[12]
  viability, T/C: 0.21%
[34]
  viability, T/C: 0.24%
[35]
  viability, T/C: 0.23%
[36]
  viability, T/C: 0.24%

## CC1COCCN1c1cc(-c2ccnn2C)c2ccnc(-c3ccn[nH]3)c2n1 (stereo not drawn) + Cc1[nH]c2ccc(F)cc2c1-c1nc2c3cccnc3c3ncccc3c2[nH]1
Second compound 0.0316 µM
  IC50: 48.7 nM
Second compound 0.1 µM
  IC50: < 31.6 nM
Second compound 0.316 µM
  IC50: < 31.6 nM
Second compound 1 µM
  IC50: < 31.6 nM
Second compound 3.16 µM
  IC50: < 31.6 nM
Second compound 10 µM
  IC50: < 31.6 nM
[1]
  viability, T/C: 72.5%
[13]
  viability, T/C: 12.9%
[2]
  viability, T/C: 9.49%
[14]
  viability, T/C: 4.92%
[15]
  viability, T/C: 6.02%
[16]
  viability, T/C: 4.47%
[3]
  viability, T/C: 46.3%
[17]
  viability, T/C: 19.1%
[4]
  viability, T/C: 8.08%
[18]
  viability, T/C: 6.91%
[19]
  viability, T/C: 5.94%
[20]
  viability, T/C: 4.22%
[5]
  viability, T/C: 48.6%
[21]
  viability, T/C: 19.7%
[6]
  viability, T/C: 9.27%
[22]
  viability, T/C: 7.38%
[23]
  viability, T/C: 5.29%
[24]
  viability, T/C: 4.46%
[7]
  viability, T/C: 38.1%
[25]
  viability, T/C: 19.6%
[8]
  viability, T/C: 7.66%
[26]
  viability, T/C: 6.25%
[27]
  viability, T/C: 5.62%
[28]
  viability, T/C: 4.21%
[9]
  viability, T/C: 35.8%
[29]
  viability, T/C: 8.61%
[10]
  viability, T/C: 5.3%
[30]
  viability, T/C: 3.85%
[31]
  viability, T/C: 3.53%
[32]
  viability, T/C: 3.13%
[11]
  viability, T/C: 28.2%
[33]
  viability, T/C: 4.74%
[12]
  viability, T/C: 3.18%
[34]
  viability, T/C: 3.81%
[35]
  viability, T/C: 2.63%
[36]
  viability, T/C: 2.34%
